The test system of data set [1] is Mice Sensitized by Sheep Red Blood Cells. Briefly: Inhibition of delayed-type hypersensitivity in mice sensitized by sheep red blood cells (footpad swelling). The format is in vivo, CDFl mice. Conditions: relative to saline control = 100%, measured at the 24th hour. The procedure: CDFl mice (8-wk-old, female) were sensitized by intravenous injection of 1 x 10⁵ sheep red blood cells. Four days later, the sensitized mice were subcutaneously injected in one footpad with 1 x 10⁸ sheep red blood cells so as to induce delayed-type hypersensitivity. The swelling of the footpad was measured at the 24th hour with a micrometer. Each of the test compounds was administered intraperitoneally in the amounts (mg/kg) indicated in Table 3 for a period of 3 days that started on the day following the initial sensitization. The degree of footpad swelling was indicated in relative values, with the value for a control given physiological saline instead of the test compounds being taken as 100%.

A short description of data set [2]: Toxicity to mice (LD50, single intraperitoneal administration). Conditions: mouse, in vivo, ip, read-out: LD₅₀. The text has this:
The compounds of the formula I are characterized by relatively low toxicity and small accumulation of toxicity upon continuous administration.

The test system of data set [3] is Spleen cells from BALB/C mice. Briefly: Inhibition of LPS-induced B-lymphocyte blast genesis (3H-thymidine uptake). The format is cell-based. Conditions: for suppression of LPS-induced genesis of B-lymphocyte blasts (in words): LPS-stimulated; for inhibition at 10 µg/mL / inhibition at 100 µg/mL: Mus musculus, 100 µg/ml of LPS from E. coli; for inhibition at 10 µg/mL: 10 µg/ml compound; for inhibition at 100 µg/mL: 100 µg/ml compound. The procedure:
(§1) Spleen cells from BALB/C mice were distributed among wells in a microplate so that each well contained 2 x 10⁵ cells/0.2 ml. Each of the selected test compounds was added to all wells but one, the latter being used as a control. ConA (5 µg/ml) was added to all the wells and the so prepared cell suspensions were cultivated in a 5% CO₂ incubator for 72 hours at 37°C. Eight hours before the completion of the incubation, 1 µCi of ³H-thymidine was added to each well and the uptake of the thymidine by the cultured cells was measured with a liquid scintillation counter to estimate the progress of reaction of T-lymphocyte blast genesis. The percentage inhibition of the genesis by each of the test compounds was calculated by: (1 - Bdpm/Adpm) x 100 wherein Adpm indicates the uptake count for the addition of ConA alone and Bdpm, the count for the addition of both ConA and the test compound.
The uptake of ³H-thymidine by B-cell blasts was measured in accordance with the method used in Test Example 2, except that the inducer ConA was replaced by 100 µg/ml of LPS from E. coli. The percentage inhibition of blast genesis by selected test compounds was also determined by the same method as used in Text Example 2.

The test system of a further data set is CDFl mice. Briefly: Inhibition of production of antibodies against sheep red blood cells (plaque-forming spleen cells). Conditions: 12.5 mg/kg per day intraperitoneally for 3 days; plaque-forming spleen cells counted. The data set is classed as in vivo. The text has this: The compounds of the formula I exert inhibitory effects on the function of lymphocytes of immunological importance. […] Therefore in vivo experiments have been conducted to examine the effects of the compounds of the formula I on T-lymphocytes. First, in accordance with the method of Lagrange et al. (Lagrange et al., Journal of Experimental Medicine, 139, 528-542, 1974), the compounds of the formula I were examined for their effects on delayed-type hypersensivity in mice that had been sensitized with sheep red blood cells. The delayed-type hypersensivity could be blocked by administering the compound for three consecutive days following the sensitization with sheep red blood cells. Additionally, in accordance with the method of Jerne et al. (Jerne et al., Cell-bound Antibodies, pp. 109-122, 1963), the compounds of the formula I were checked for their effects on the plaque-forming ability of spleen cells from mice sensitized by antigenic sheep red blood cells.
CDFl mice (6-10 wk old, female) were immunized by intravenous injection of 1 x 10⁸ sheep red blood cells. The mice were intraperitoneally administered 12.5 mg/kg per day of selected test compounds for a period of 3 days starting from the day following the intravenous injection. Four days later, spleen cells were isolated from the mice and the number of plaque-forming cells was counted. The percentage inhibition of antibody production was calculated by (1 - B/A) x 100 wherein A is the count for a control group (given physiological saline) and B, for the treated group.

In data set [4] the test system is Spleen cells from BALB/C mice. Kind of data set: Inhibition of ConA-induced T-lymphocyte blast genesis (3H-thymidine uptake). The data set is classed as cell-based. Conditions: for inhibition of the reaction of T-lymphocyte blast genesis (in words): ConA-stimulated; for inhibition at 10 µg/mL / inhibition at 100 µg/mL: Mus musculus, T-lymphocyte, ConA 5 µg/ml, 72 hours; for inhibition at 10 µg/mL: 10 µg/ml compound; for inhibition at 100 µg/mL: 100 µg/ml compound. How it is done:
as §1

The mark [5] stands for this setting: 3.13 mg/kg intraperitoneally for 3 days.
Setting [6] is: 12.5 mg/kg intraperitoneally for 3 days.
Setting [7] is: 0.20 mg/kg intraperitoneally for 3 days.
Setting [8] is: 0.78 mg/kg intraperitoneally for 3 days.
[9] abbreviates: 6.25 mg/kg intraperitoneally for 3 days.
Where [10] appears, read: 25 mg/kg intraperitoneally for 3 days.

12 compounds from EP0181592B1, “Use of spergualin derivatives for the preparation of medicaments having immunosuppressive activity” (MICROBIAL CHEMISTRY RESEARCH FOUNDATION, priority 1984, dated 1986) can be followed below.

As for `N=C(N)NCCCC[C@H](O)CC(=O)NC(O)C(=O)NCCCCNCCCN` (some centres unmarked) [Spergualin], the “Footpad swelling (%)” value worked out at 106% in data set [1] (setting [5]) and 28% in data set [1] (setting [6]).
As to `N=C(N)Nc1ccc(CCCCC(=O)N[C@@H](CO)C(=O)NCCCCNCCCN)cc1` [(9), N-[4-(3-aminopropyl)aminobutyl]-2-[5-(p-guanidinophenyl)-pentaneamido]-(S)-2-hydroxymethylethaneamide], the “Footpad swelling (%)” value is on record as 45% in data set [1] (setting [5]) and 52% in data set [1] (setting [6]). Also, the LD50 in data set [2] was 25 to 50 mg/kg.
Consider `N=C(N)NCCCCCCC(=O)NC(O)C(=O)NCCCCNCCCN` (centres unmarked) [(1), N-[4-(3-aminopropyl)aminobutyl]-2-(7-guanidinoheptaneamido)-2-hydroxyethaneamide], for which the “Footpad swelling (%)” value in data set [1] (setting [7]) came to 72%; in data set [1] (setting [8]) it was 87%; in data set [1] (setting [5]), 29%; in data set [1] (setting [6]) it was 15%. For the same compound, the “suppression of LPS-induced genesis of B-lymphocyte blasts (in words)” value (“suppression” for short) in data set [3] is on record as “highly effective in suppressing”. Also, the inhibition at 10 µg/mL is 98% in data set [3] and 93% in data set [4]. The inhibition at 100 µg/mL in data set [3] and in data set [4] was 100% throughout. For the same compound, the “percentage inhibition of antibody production” value (from here on “percentage inhibition”) with CDFl mice is listed as 98.5%. For the same compound, the LD50 in data set [2] was in the range of 25 to 50 mg/kg. For the same compound, in data set [4], the “inhibition of the reaction of T-lymphocyte blast genesis (in words)” value (“inhibition of the reaction … (in words)” below) is on record as “strong ability to inhibit”.
With `N=C(N)Nc1ccc(CCCC(=O)NCC(=O)NCCCCNCCCN)cc1` [(6), N-[4-(3-aminopropyl)aminobutyl]-2-[4-(p-guanidinophenyl)butaneamido]ethaneamide], the “Footpad swelling (%)” value in data set [1] (setting [9]) is 102%. The “Footpad swelling (%)” value in data set [1] (setting [10]) worked out at 33%. Also, in data set [3], the “suppression” value is on record as “highly effective in suppressing”, 10 µg/mL produced 96% inhibition and testing at 100 µg/mL gave an inhibition of 100%. The “percentage inhibition” value with CDFl mice is reported as 92,9%. Moreover, the LD50 in data set [2] was in the range of 25 to 50 mg/kg. In data set [4], the “inhibition of the reaction … (in words)” value is “strong ability to inhibit”, the inhibition at 10 µg/mL turned out to be 99% and testing at 100 µg/mL gave an inhibition of 100%.
As for `N=C(N)NCCCCCCC(=O)N[C@@H](CO)C(=O)NCCCCNCCCN` [(5), N-[4-(3-aminopropyl)aminobutyl]-2-(7-guanidinoheptaneamido)-(S)-2-hydroxymethylethaneamide], in data set [1] (setting [7]), the “Footpad swelling (%)” value is 81%. Further, in data set [1] (setting [8]), the “Footpad swelling (%)” value turned out to be 117%. Further, the “Footpad swelling (%)” value in data set [1] (setting [5]) is 58%. In data set [3], the “suppression” value is on record as “highly effective in suppressing”, the inhibition at 10 µg/mL turned out to be 88% and the inhibition at 100 µg/mL was found to be 100%. In the data set with CDFl mice, the “percentage inhibition” value is listed as 89,4%. Also, the LD50 in data set [2] lay in the range of 12.5 to 25 mg/kg. For the same compound, in data set [4], the “inhibition of the reaction … (in words)” value is “strong ability to inhibit”, the inhibition at 10 µg/mL amounted to 96% and the inhibition at 100 µg/mL was determined as 100%.
For the compound `N=C(N)NCCCCC=CC(=O)NC(O)C(=O)NCCCCNCCCN` (centres unmarked) [(11), N-[4-(3-aminopropyl)aminobutyl]-2-[7-guanidinohepta-2-enamido]-2-hydroxyethaneamide], the “Footpad swelling (%)” value in data set [1] (setting [5]) amounted to 40%. Also, the “Footpad swelling (%)” value in data set [1] (setting [6]) was 8.5%. In data set [3], the “suppression” value was “highly effective in suppressing”, the inhibition at 10 µg/mL stood at 98% and at 100 µg/mL the inhibition was 100%. The LD50 in data set [2] fell in the range of 25 to 50 mg/kg. Also, in data set [4], the “inhibition of the reaction … (in words)” value is given as “strong ability to inhibit”, the inhibition at 10 µg/mL was found to be 88% and at 100 µg/mL the inhibition was 100%.
For `N=C(N)NCc1ccc(CCC(=O)N[C@@H](CO)C(=O)NCCCCNCCCN)cc1` [(8), N-[4-(3-aminopropyl)aminobutyl]-2-[3-(p-guanidinomethylphenyl)propaneamido]-(S)-2-hydroxymethylethaneamide], the “Footpad swelling (%)” value in data set [1] (setting [5]) amounted to 50%. Also, the “Footpad swelling (%)” value in data set [1] (setting [6]) worked out at 20%. For the same compound, in data set [2], the LD50 is 25 to 50 mg/kg. Further, in data set [4], the “inhibition of the reaction … (in words)” value is recorded as “strong ability to inhibit”, 10 µg/mL produced 79% inhibition and testing at 100 µg/mL gave an inhibition of 100%.
In the case of `N=C(N)Nc1ccc(CCCC(=O)N[C@@H](CO)C(=O)NCCCCNCCCN)cc1` [(7), N-[4-(3-aminopropyl)aminobutyl]-2-[4-(p-guanidinophenyl)-butaneamido]-(S)-2-hydroxymethylethaneamide], the entries for the “Footpad swelling (%)” value in data set [1] (setting [9]) and in data set [1] (setting [10]) were 54% and 42%, respectively. Also, in data set [2], the LD50 fell in the range of 25 to 50 mg/kg.
On to `COC(NC(=O)C=CCCCCNC(=N)N)C(=O)NCCCCNCCCN` (centres unmarked) [(10), N-[4-(3-aminopropyl)aminobutyl]-2-[7-guanidinohepta-2-enamido]-2-methoxyethaneamide], for which the “Footpad swelling (%)” value in data set [1] (setting [5]) is listed as 37%; in data set [1] (setting [6]), 6.0%. The LD50 in data set [2] lay in the range of 25 to 50 mg/kg.
Regarding `N=C(N)NCCCCCCCCC(=O)NC(O)C(=O)NCCCCNCCCN` (centres unmarked) [(3), N-[4-(3-aminopropyl)aminobutyl]-2-(9-guanidinononaneamido)-2-hydroxyethaneamide], the “Footpad swelling (%)” value in data set [1] (setting [7]) was found to be 55%; in data set [1] (setting [8]) it was 32%; in data set [1] (setting [5]), 11%; in data set [1] (setting [6]) it was 6.6%. Besides, the LD50 in data set [2] was in the range of 12.5 to 25 mg/kg.
Consider `COC(NC(=O)CCCCCCNC(=N)N)C(=O)NCCCCNCCCN` (centres unmarked) [(2), N-[4-(3-aminopropyl)aminobutyl]-2-(7-guanidinoheptaneamino)-2-methoxyethaneamide], for which the “Footpad swelling (%)” value in data set [1] (setting [7]) worked out at 99%; in data set [1] (setting [8]) it was 49%; in data set [1] (setting [5]), 5.5%. In addition, the “percentage inhibition” value in the data set with CDFl mice is listed as 95.9%. In addition, the LD50 in data set [2] was 12.5 to 25 mg/kg.
In the case of `N=C(N)NCCCCCCC(=O)NCC(=O)NCCCCNCCCN` [(4), N-[4-(3-aminopropyl)aminobutyl]-2-(7-guanidinoheptaneamido)-ethaneamide], the “Footpad swelling (%)” value worked out at 99% in data set [1] (0.39 mg/kg intraperitoneally for 3 days), 111% in data set [1] (setting [8]) and 46% in data set [1] (setting [9]). Further, in data set [3], the “suppression” value is “highly effective in suppressing”. Moreover, the values for the inhibition at 10 µg/mL in data set [3] and in data set [4] were 100% and 99%, respectively. The inhibition at 100 µg/mL in data set [3] and in data set [4] was 100% throughout. Moreover, the “percentage inhibition” value with CDFl mice is reported as 89,4%. Besides, the LD50 in data set [2] is 12.5 to 25 mg/kg. Besides, in data set [4], the “inhibition of the reaction … (in words)” value is “strong ability to inhibit”.

A word on the inhibition: it is the change of the read-out against control, counted positive when it falls.
